Like-named read-outs stand apart in the source and are kept apart here. Starred links: 1 amine or outer side, 2 acyl side, 3 side chain; linkers in the order of their positions; H or OH if unused. Positions of bridges follow the written chain, without caps; N, C: chain ends. Non-standard residues stand in square brackets, D forms with d. Residues, ends and D or L forms follow the SMILES beside them. *: point of attachment. NMeF = CN[C@@H](Cc1ccccc1)C(=O)O; NMeβAla = CN(CCC(=O)[*:2])[*:1]; NMeL = CN[C@@H](CC(C)C)C(=O)O; NMeV = CN[C@H](C(=O)O)C(C)C; NMeA = CN[C@@H](C)C(=O)O; Piperidide = C1CCN(*)CC1; dNMeA = CN[C@H](C)C(=O)O
Key:
[1] = PAMPA (parallel artificial membrane permeability assay); assay type: in vitro ADME; details: PAMPA
In short: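 Artificial membrane was 10% (w/v) egg lecithin plus 0.5% (w/v) cholesterol in dodecane on a PVDF filter. A 10 mM DMSO stock was added at 0.5% (v/v) to donor buffer (50 mM MOPSO, pH 6.5, 5.0% glycocholic acid). After 18 h at 37 °C, LC/MS or LC/UV gave donor and acceptor levels for Pe.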

[2] = Metabolic stability in human hepatic microsome; assay type: in vitro ADME; details: microsomes

| SMILES | Papp at 18 hours, 50 µM ([1]; pH 6.5) [×10⁻⁶ cm/s] | microsomal CLint at 1 uM ([2]; human, pH 7.4, CL NADPH(+)) [µL/min/mg] | Papp at 18 hours, 50 µM ([1]; membrane permeation rate (Pe), 50 mM MOPSO buffer pH 6.5 with 5.0% glycocholic acid, 37° C., 18 hours, read-out: iPAMPA Pe) [×10⁻⁶ cm/s] | microsomal CLint at 1 uM ([2]; pH 7.4, human hepatic microsome, NADPH(+), read-out: CL NADPH(+)) [µL/min/mg] |
| --- | --- | --- | --- | --- |
| CC[C@H](C)[C@@H]1NC(=O)[C@@H](C(C)C)NC(=O)C[C@@H](C(=O)N(C)[C@@H](Cc2ccccc2)C(=O)N[C@@H](C)C(=O)N2CCCCC2)NC(=O)[C@H](Cc2ccccc2)N(C)C(=O)[C@H](C)NC(=O)[C@H](CC(C)C)N(C)C(=O)[C@H](C)N(C)C(=O)[C@H]([C@@H](C)O)NC(=O)[C@H](C)N(C)C(=O)[C@H](C(C)C)N(C)C1=O [DP-294] ([dV]I[NMeV][NMeA]T[NMeA][NMeL]A[NMeF]D[NMeF]A-Piperidide; lactam N-10) | 17 | 35 | – | – |
| CC(C)C[C@H]1C(=O)N[C@H](C(=O)N(C)[C@@H](Cc2ccccc2)C(=O)N[C@@H](C)C(=O)N2CCCCC2)CC(=O)N(C)[C@@H](C)C(=O)N[C@@H](Cc2ccccc2)C(=O)N(C)[C@@H](C(C)C)C(=O)N(C)[C@@H](C)C(=O)N[C@@H]([C@@H](C)O)C(=O)N(C)[C@@H](C)C(=O)N(C)[C@@H](CC(C)C)C(=O)N[C@@H](C)C(=O)N1C [DP-296] ([NMeA]F[NMeV][NMeA]T[NMeA][NMeL]A[NMeL]D[NMeF]A-Piperidide; lactam N-10) | 15 | 64 | – | – |
| CC[C@H](C)[C@@H]1NC(=O)[C@H](C(C)C)N(C)C(=O)[C@H](CC(C)C)N(C)C(=O)[C@H](C)N(C)C(=O)[C@H]([C@@H](C)O)NC(=O)[C@H](Cc2ccccc2)N(C)C(=O)CCN(C)C(=O)C[C@@H](C(=O)N(C)[C@@H](Cc2ccccc2)C(=O)N(C)[C@@H](Cc2ccccc2)C(=O)N[C@@H](C)C(=O)N2CCCCC2)NC(=O)[C@H](C)N(C)C(=O)[C@H](CC(C)C)N(C)C1=O [DP-297] ([NMeβAla][NMeF]T[NMeA][NMeL][NMeV]I[NMeL][NMeA]D[NMeF][NMeF]A-Piperidide; lactam N-10) | 19 | 78 | – | – |
| CC(C)C[C@H]1C(=O)N[C@@H](Cc2ccccc2)C(=O)N(C)[C@@H](C(C)C)C(=O)N[C@@H]([C@@H](C)O)C(=O)N[C@H](C(=O)N(C)[C@@H](Cc2ccccc2)C(=O)N(C)[C@@H](Cc2ccccc2)C(=O)N[C@@H](C)C(=O)N2CCCCC2)CC(=O)N(C)CCC(=O)N[C@@H](C(C)C)C(=O)N(C)[C@@H](CC(C)C)C(=O)N(C)[C@@H](Cc2ccccc2)C(=O)NCC(=O)N1C [DP-298] ([NMeβAla]V[NMeL][NMeF]G[NMeL]F[NMeV]TD[NMeF][NMeF]A-Piperidide; lactam N-10) | 7 | 39 | – | – |
| CC[C@H](C)[C@@H]1NC(=O)[C@H](Cc2ccccc2)N(C)C(=O)[C@H](CC(C)C)N(C)C(=O)[C@H](Cc2ccccc2)N(C)C(=O)[C@H]([C@@H](C)O)NC(=O)CCN(C)C(=O)C[C@@H](C(=O)N(C)[C@@H](Cc2ccccc2)C(=O)N[C@@H](C)C(=O)N2CCCCC2)NC(=O)[C@H](CC(C)C)N(C)C(=O)[C@H](C)N(C)C(=O)[C@H](CC(C)C)N(C)C1=O [DP-299] ([NMeβAla]T[NMeF][NMeL][NMeF]I[NMeL][NMeA][NMeL]D[NMeF]A-Piperidide; lactam N-10) | 5.3 | 56 | – | – |
| CC[C@H](C)[C@@H]1NC(=O)[C@H](CC(C)C)N(C)C(=O)[C@H](C)N(C)C(=O)[C@H]([C@@H](C)O)NC(=O)[C@H](Cc2ccccc2)N(C)C(=O)[C@H](C)N(C)C(=O)[C@@H](C)N(C)C(=O)C[C@@H](C(=O)N(C)[C@@H](Cc2ccccc2)C(=O)N(C)[C@@H](Cc2ccccc2)C(=O)N[C@@H](C)C(=O)N2CCCCC2)NC(=O)[C@H](C(C)C)N(C)C(=O)[C@H](CC(C)C)N(C)C1=O [DP-300] ([dNMeA][NMeA][NMeF]T[NMeA][NMeL]I[NMeL][NMeV]D[NMeF][NMeF]A-Piperidide; lactam N-10) | – | – | 8.2 | 166 |

Source: patent publication US9409952B2, “Peptide-compound cyclization method” (Chugai Seiyaku Kabushiki Kaisha, priority 2011, dated 2016)
